We go through eight compounds from US11931335B2, “Enhancing autophagy or increasing longevity by administration of urolithins or precursors thereof” (Amazentis SA, priority 2012, dated 2024).

In test [1] the test system is C. elegans wild-type Bristol N2. Put plainly: Lifespan of wild-type C. elegans. As to conditions: concentration of 50 µM; exposed from eggs; FIG. 4. The class given is in vivo. How it is done: C. elegans strains were cultured at 20° C. on nematode growth media (NGM) agar plates seeded with E. coli strain OP50. Strain used was wild-type Bristol N2 provided by the Caenorhabditis Genetics Center (University of Minnesota). All Compounds were dissolved in DMSO. Animals were exposed to compounds from eggs on plates seeded with live OP50 bacteria. Control plates were prepared with the corresponding concentrations of DMSO (0.1%). For lifespan tests, worms were observed using a Nikon SMZ1500 stereomicroscope (Nikon, Melville, NY, USA). […] After 3 days (corresponding to day 0), newly developed 60 to 100 L4 worms were used per condition, scored and transferred to fresh plates every 3 days starting from day 1 (young adult worms). All lifespan experiments were performed at 20° C.
Lifespan assays were performed with (A) wild-type (N2), (B) sir-2.1(ok434) mutant, (C) aak-2(ok524), (D) daf-16(mu86), (E) eat-2(ad465) and (F) daf-2(e1370) mutant strains of C. elegans maintained during their full life on plates supplemented with either 50 μM of urolithin A or with a control treatment and seeded with OP50 bacteria. Control plates without urolithin A contained an equivalent concentration of DMSO. Worm lifespan assays were performed at 20° C.

Test [2] relates to C. elegans wild type (N2, Bristol). Put plainly: Mobility tracking of C. elegans during aging. It counts as in vivo. As to conditions: days 1, 3, 5 and 8 of adulthood; 50 μM; FIG. 12. The protocol: To examine the effect of urolithins on muscle activity during aging, C. elegans mobility was examined over time. Synchronized populations of wild-type nematodes were prepared by standard methods and cultivated at 20° C. on NGM agar containing E. Coli (OP50) with or without test compounds (ellagic acid (EA), urolithins A (UA), and B (UB)). At Day 0, five plates were prepared, each containing 10 young adult worms. Worms were assayed for mobility at different ages, day 1, 3, 5 and 8 of adulthood. The wild type (N2, Bristol) worm strain was employed for these studies.
For C. elegans movement tracking, 45 seconds of video were recorded using a Nikon DS-L2/DS-Fi1 camera and controller setup, attached to both a computer and a standard bright field microscope, tracking an entire plate of 10 worms, with 5 plates per condition. The movement of worms during this time was calculated using an adapted version of the freely-available software Parallel Worm Tracker for MATLAB. The total movement over the 45 second tracking was averaged across all worms for each condition. This experiment was repeated twice with between 40 and 70 worms per condition.

In test [3] the test system is C. elegans wild-type Bristol N2. As to conditions: Genotype: N2, fed live E. coli (OP50), cited from earlier work.
The subject of test [4] is undifferentiated C2C12 mouse myoblasts. Put plainly: LC3B flow cytometry in C2C12 myoblasts. It counts as cell-based. As to conditions: 100 μM, 24 hrs, FIG. 26. How it is done:
To determine the ability of urolithin A to induce autophagy in mouse muscle cells, undifferentiated C2C12 mouse myoblasts were seeded in T25 flasks and incubated overnight. Cells were incubated in 5% CO2 at 37° C. These cells were treated with one of the urolithins-urolithin A (UA), urolithin B (UB), urolithin C (UC) or urolithin D (UD)—dissolved in a 0.1% solution of DMSO for 24 hours. In one experiment UA, UB, UC and UD were dosed at a concentration of 100 μM for C2C12 myoblast treatment. In a separate study, C2C12 myoblasts were incubated at increasing concentrations of UA (10 μM, 50 μM and 100 μM). For each experiment a control culture was treated with 0.1% DMSO for the same period and served as the untreated control. In the final 30 minutes of incubation, lysosome degradation inhibitor was added to the culture. The cells were then washed with phosphate buffer solution and then treated with a 1% solution of trypsin enzyme to remove the adhesive cells from the cell culture dishes. The cells were then treated with EMD Millipore selective permeabilization reagent to permeabilize the cells so as to make the internal cellular proteins accessible to antibody treatment. Cells were then incubated with antibody to LC3B according to kit protocol (EMD Millipore FlowCellect™ Autophagy LC3 Antibody-based Assay Kit (Cat no. FCCH100171)). The cells were then washed and resuspended in the kit assay buffer. The resulting cells were then run through a flow cytometer and LC3B-FITC fluorescence was quantified to measure the level of LC3B in C2C12 cells for the various treatments. When cells undergo autophagy their intracellular levels of LC3-II increase which is detected by this method. This autophagy can be detected by fluorescent antibody labeling of LC3B, which can be measured quantitatively using flow cytometry. An increase in cellular autophagy is reflected by an increasing signal in the histogram of LC3B FITC.
For orientation: A flow cytometer gives signals particle by particle.

For test [5], the system named is C. elegans. The experiment in a line: Time-lapse motility of C. elegans. As to conditions: 50 μM; days 8, 14 and 16; FIG. 13. The class given is in vivo. An excerpt:
Briefly, worms were observed using a Nikon SMZ1500 stereomicroscope (Nikon, Melville, NY, USA). […] Experiments were repeated three times.

Test [6] relates to C. elegans. Put plainly: Pharyngeal pumping in C. elegans. The class given is in vivo. As to conditions: day 14 (aged worms); 50 μM; FIG. 11. The protocol:
To examine the effect of urolithins on muscle function, pharyngeal pumping was examined in C. elegans worms at day 7 and day 14. Worms were observed using a Nikon SMZ1500 stereomicroscope (Nikon, Melville, NY, USA). Ten L4 worms were transferred on plates containing NGM medium with vehicle (DMSO 0.1%, final concentration) or the compound of interest (urolithin A (UA), urolithin B (UB), urolithin C (UC), urolithin D (UD)) dissolved in DMSO (final concentration 50 μM) and seeded with E. coli RNAi clones as indicated. After 3 days (corresponding to day 0), newly developed 60 to 100 L4 worms were used per condition, scored and transferred to fresh plates every 3 days starting from day 1 (young adult worms). Experiments were performed at 20° C.
The pharyngeal pumping rates at day 7 and 14 were measured for 10 worms by transferring single worms to an unseeded plate and scoring for pharyngeal pumping under a dissecting microscope for 30 seconds. The pharyngeal pumping rates were then computed by extrapolating the pumping made by worms during this 30 second period.

Structures are written as SMILES. Entries after “also recorded” stand apart in the source; their conditions may differ. Read-outs that look alike come from different tables or passages of the source.

Regarding `O=c1oc2c(O)c(O)cc3c(=O)oc4c(O)c(O)cc1c4c23` [Ellagic acid, ellagic acid], the “effect on lifespan in C. elegans” value in test [1] is given as “no effects”. For the same compound, in test [2], the “age related mobility decline” value is given as “no effect”.
With `CN(C)C(=N)NC(=N)N` [Metformin, N,N-Dimethylimidodicarbonimidic diamide], the “Mean Life Extension (%)” value in test [3] (dose 50 μM) is on record as 27%.
`CO[C@H]1C[C@@H]2CC[C@@H](C)[C@@](O)(O2)C(=O)C(=O)N2CCCC[C@H]2C(=O)O[C@H]([C@H](C)C[C@@H]2CC[C@@H](O)[C@H](OC)C2)CC(=O)[C@H](C)/C=C(\C)[C@@H](O)[C@@H](OC)C(=O)[C@H](C)C[C@H](C)/C=C/C=C/C=C/1C` [Rapamycin, (3S,6R,7E,9R,10R,12R,14S,15E,17E,19E,21S,23S,26R,27R,34aS)-9,10,12,13,14,21,22,23,24,25,26,27,32,33,34,34a-hexadecahydro-9,27-dihydroxy-3-[(1R)-2-[(1S,3R,4R)-4-hydroxy-3-methoxycyclohexyl]-1-methylethyl]-10,21-dimethoxy-6,8,12,14,20,26-hexamethyl-23,27-epoxy-3H-pyrido[2,1-c][1, 4]-oxaazacyclohentriacontine-1,5,11,28,29(4H,6H,31H)-pentone]: the “Mean Life Extension (%)” value in test [3] (dose 100 μM) is 19%.
Turning to `Oc1ccc(/C=C/c2cc(O)cc(O)c2)cc1` [Resveratrol, 3,5,4′-trihydroxy-trans-stilbene], the “Mean Life Extension (%)” value in test [3] (dose 100 μM) was 6.2-12.6%; in test [3] (dose 100 μM, listed as resveratrol), 12.6%.
As to `NCCCCNCCCN` [Spermidine, spermidine], in test [3] (dose 200 μM), the “Mean Life Extension (%)” value is reported as 15%.
Take `O=c1oc2cc(O)ccc2c2ccccc12` [Urolithin B, urolithin B]: the “LC3B signal (shift of the histogram)” value in test [4] (listed as UB) was “increasing signal of LC3B; also recorded: increase in autophagy”. Also, in test [1], the “effect on lifespan in C. elegans” value was “extended the lifespan”. In test [5], the “motility (time-lapse traces)” value is recorded as “strongest effect”. Moreover, the “age related mobility decline” value in test [2] is reported as “marked ability to reduce muscle function decline”. The “pharyngeal pumping (muscle function)” value in test [6] is reported as “decreases the age related decline in muscle activity”.
Regarding `O=c1oc2cc(O)ccc2c2cc(O)c(O)cc12` [Urolithin C, urolithin C], the “LC3B signal (shift of the histogram)” value in test [4] (listed as UC) is “increasing signal of LC3B; also recorded: increase in autophagy”. The “effect on lifespan in C. elegans” value in test [1] was “extended the lifespan”.
For `O=c1oc2c(O)c(O)ccc2c2cc(O)c(O)cc12` [Urolithin D, urolithin D], the “LC3B signal (shift of the histogram)” value in test [4] (listed as UD) is “increasing signal of LC3B; also recorded: increase in autophagy”. Further, the “effect on lifespan in C. elegans” value in test [1] is listed as “extended the lifespan”.
